The source of these data is US9080186B2, “Compositions comprising cationic amphiphiles and colipids for delivering therapeutic molecules” (Agave Pharma, Incorporated, priority 2009, dated 2015).

The nature of the data set: siRNA remaining in water (supernatant OD260) after precipitation with cationic lipid. The format is physicochemical. Further details: unit not given here. How it is done:
A nucleic acid/cationic lipid salt was prepared by the following method. Two mg of the cationic lipid was dissolved in 0.1 mL of chloroform in a clean, dry borosilicate clear glass vial and the chloroform was evaporated off by blowing nitrogen gas into the vial and any remaining trace amount of chloroform was removed by drying in vacuo in a vacuum chamber. The vial was removed from the vacuum chamber and 0.1 mL of ethanol was added. The vial was sealed with TEFLON®-lined cap and tightly wrapped with a sealing tape. The vial was vortexed or/and sonicated to dissolve the cationic lipid.
The solution of the cationic lipid in ethanol was added to an aqueous solution containing 1 mg siRNA. The addition of the cationic lipid to the siRNA solution caused immediate aggregation forming a water-insoluble cationic lipid/nucleic acid salt comprised of the cationic lipid and siRNA.
The water-insoluble cationic lipid/nucleic acid salt in a tube was then centrifuged in an Eppendorf microcentrifuge at maximum speed for 15 minutes to form a pellet. The supernatant after each centrifugation were collected and the amount siRNA in the supernatant was measured with OD260.
Table 2 is the summary of measurement of the ratio of siRNA/lipid which rendering siRNA insoluble in water.

For `CC(C)CCC[C@@H](C)[C@H]1CC[C@H]2[C@@H]3CC=C4C[C@@H](OC(=O)NCCN(C)C)CC[C@]4(C)[C@H]3CC[C@]12C.Cl` [DC-Chol, cholesteryl 3β-N-(dimethylaminoethyl)carbamate hydrochloride], the “siRNA remaining in water” value was 72 (siRNA/lipids ratio 0.5); 63 (siRNA/lipids ratio 0.75); 57 (siRNA/lipids ratio 1); 35 (siRNA/lipids ratio 1.5); 13 (siRNA/lipids ratio 2).
In the same order, the values of `CCCCCCCC/C=C\CCCCCCCCOCC(C[N+](C)(C)C)OCCCCCCCC/C=C\CCCCCCCC.[Cl-]` (stereo not drawn) [DOTMA, N-[1-(2,3-dioleyloxy)propyl]-N,N,N-trimethylammonium chloride] are 61, 57, 46, 29 and 6.
On to `CCCCCCCC/C=C\CCCCCCCC(=O)OCC(C[N+](C)(C)C)OC(=O)CCCCCCC/C=C\CCCCCCCC.[Cl-]` (stereo not drawn) [DOTAP, N-(l-(2,3-dioleoyloxy)propyl)-N,N,N-trimethylammonium chloride], for which the “siRNA remaining in water” value worked out at 63 (siRNA/lipids ratio 0.5); 55 (siRNA/lipids ratio 0.75); 45 (siRNA/lipids ratio 1); 28 (siRNA/lipids ratio 1.5); 10 (siRNA/lipids ratio 2).
